Paper PMC11871328 (Communications Biology, 2025)

Assays:
[1] = test system: MCF-7 breast cancer cells; assay: MTT cell viability assay, MCF-7; assay type: cell-based, human; conditions: in words
BAG-1:HSP70 interaction = conditions: in words; from earlier studies; cited from earlier work
[2] = in words; from earlier studies; cited from earlier work

| SMILES | Effect on viability of MCF-7 cells [1] | Inhibition of BAG-1:HSP70 interaction (BAG-1:HSP70 interaction) | Solubility in water [2] |
| --- | --- | --- | --- |
| N=C(N)NCCC[C@H](NC(=O)CN)C(=O)N[C@@H](CCCCN)C(=O)N[C@@H](CCCCN)C(=O)N[C@@H](CCCNC(=N)N)C(=O)N[C@@H](CCCNC(=N)N)C(=O)N[C@@H](CCC(N)=O)C(=O)N[C@@H](CCCNC(=N)N)C(=O)N[C@@H](CCCNC(=N)N)C(=O)N[C@@H](CCCNC(=N)N)C(=O)N1CCC[C@H]1C(=O)N[C@@H](CCC(N)=O)C(N)=O [TAT only] | did not affect the viability of the cells |  |  |
| CCNc1ccc(-c2nc3ccc(C)cc3s2)cc1 [Thio-2, N-Ethyl-4-(6-methyl-1,3-benzothiazol-2-yl)aniline] |  | moderate inhibition | poor solubility in water |
